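Each compound was tested at five concentrations against cells in 96-well plates for 48 hours. TGI denotes the concentration required for complete inhibition of growth.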
Tests used:
Assay in all cases: NCI tumour cell line growth inhibition, 48 h
MDA-MB-231 breast = tested on: MDA-MB-231 breast
OVCAR-8 ovarian = tested on: OVCAR-8 ovarian
SF-295 CNS = tested on: SF-295 CNS
OVCAR-3 ovarian = tested on: OVCAR-3 ovarian
OVCAR-4 ovarian = tested on: OVCAR-4 ovarian
BT-549 breast = tested on: BT-549 breast
CCRF-CEM leukemia = tested on: CCRF-CEM leukemia
NCI-H226 lung = tested on: NCI-H226 lung
PC-3 prostate = tested on: PC-3 prostate
MDA-MB-435 = tested on: MDA-MB-435
SNB-75 CNS = tested on: SNB-75 CNS
COLO 205 colon = tested on: COLO 205 colon
CAKI-1 renal = tested on: CAKI-1 renal
SK-MEL-28 melanoma = tested on: SK-MEL-28 melanoma
SK-MEL-5 melanoma = tested on: SK-MEL-5 melanoma
HCT-15 colon = tested on: HCT-15 colon
UO-31 renal = tested on: UO-31 renal
786-0 renal = tested on: 786-0 renal
HL-60(TB) leukemia = tested on: HL-60(TB) leukemia
HCT-116 colon = tested on: HCT-116 colon
TK-10 renal = tested on: TK-10 renal
HS 578T breast = tested on: HS 578T breast
ACHN renal = tested on: ACHN renal
SNB-19 CNS = tested on: SNB-19 CNS
A498 renal = tested on: A498 renal
A549 NSCLC = tested on: A549 NSCLC
DU-145 prostate = tested on: DU-145 prostate
U251 CNS = tested on: U251 CNS
IGROV1 ovarian = tested on: IGROV1 ovarian
MDA-N = tested on: MDA-N
NCI-H522 lung = tested on: NCI-H522 lung
EKVX NSCLC = tested on: EKVX NSCLC
SW-620 colon = tested on: SW-620 colon
NCI-H23 lung = tested on: NCI-H23 lung
T-47D breast = tested on: T-47D breast
SN12C renal = tested on: SN12C renal
SF-268 CNS = tested on: SF-268 CNS
HT29 colon = tested on: HT29 colon
UACC-257 melanoma = tested on: UACC-257 melanoma
SK-OV-3 ovarian = tested on: SK-OV-3 ovarian
MALME-3M melanoma = tested on: MALME-3M melanoma
UACC-62 melanoma = tested on: UACC-62 melanoma
M14 melanoma = tested on: M14 melanoma
K-562 leukemia = tested on: K-562 leukemia
HOP-92 NSCLC = tested on: HOP-92 NSCLC
HCC-2998 colon = tested on: HCC-2998 colon
NCI/ADR-RES ovarian = tested on: NCI/ADR-RES ovarian
OVCAR-5 ovarian = tested on: OVCAR-5 ovarian
LOX IMVI melanoma = tested on: LOX IMVI melanoma
NCI-H460 lung = tested on: NCI-H460 lung
KM12 colon = tested on: KM12 colon
SK-MEL-2 melanoma = tested on: SK-MEL-2 melanoma
MOLT-4 leukemia = tested on: MOLT-4 leukemia
MCF7 breast = tested on: MCF7 breast
RPMI-8226 leukemia = tested on: RPMI-8226 leukemia
SF-539 CNS = tested on: SF-539 CNS

Compound: COc1c(OC)c(OC)c(C(=O)/C=C/c2ccccc2)c(OC)c1OC
- TGI (MDA-MB-231 breast): 35.6 µM
- TGI (OVCAR-8 ovarian): 34 µM
- TGI (SF-295 CNS): 29.9 µM
- TGI (OVCAR-3 ovarian): 25.1 µM
- TGI (OVCAR-4 ovarian): 30.7 µM
- TGI (BT-549 breast): 18.1 µM
- TGI (CCRF-CEM leukemia): 18.1 µM
- TGI (NCI-H226 lung): 38.4 µM
- TGI (PC-3 prostate): 31.1 µM
- TGI (MDA-MB-435): 19.7 µM
- TGI (SNB-75 CNS): 23.1 µM
- TGI (COLO 205 colon): 31.9 µM
- TGI (CAKI-1 renal): 28.4 µM
- TGI (SK-MEL-28 melanoma): 27.3 µM
- TGI (SK-MEL-5 melanoma): 26.3 µM
- TGI (HCT-15 colon): 23 µM
- TGI (UO-31 renal): 22.2 µM
- TGI (786-0 renal): 21.6 µM
- TGI (HL-60(TB) leukemia): 38.2 µM
- TGI (HCT-116 colon): 18.5 µM
- TGI (TK-10 renal): 26.4 µM
- TGI (HS 578T breast): > 100 µM
- TGI (ACHN renal): 28.9 µM
- TGI (SNB-19 CNS): 25.1 µM
- TGI (A498 renal): 17.5 µM
- TGI (A549 NSCLC): 46.2 µM
- TGI (DU-145 prostate): 12 µM
- TGI (U251 CNS): 20.5 µM
- TGI (IGROV1 ovarian): 27.9 µM
- TGI (MDA-N): 70.2 µM
- TGI (NCI-H522 lung): 14.7 µM
- TGI (EKVX NSCLC): 35.5 µM
- TGI (SW-620 colon): 31 µM
- TGI (NCI-H23 lung): 26.8 µM
- TGI (T-47D breast): 23.7 µM
- TGI (SN12C renal): 26.9 µM
- TGI (SF-268 CNS): 22.1 µM
- TGI (HT29 colon): 15.1 µM
- TGI (UACC-257 melanoma): 34.3 µM
- TGI (SK-OV-3 ovarian): 32.9 µM
- TGI (MALME-3M melanoma): 30.1 µM
- TGI (UACC-62 melanoma): 24.2 µM
- TGI (M14 melanoma): 36.7 µM
- TGI (K-562 leukemia): 55.5 µM
- TGI (HOP-92 NSCLC): 17.9 µM
- TGI (HCC-2998 colon): 29.7 µM
- TGI (NCI/ADR-RES ovarian): 55.1 µM
- TGI (OVCAR-5 ovarian): 36.9 µM
- TGI (LOX IMVI melanoma): 36.7 µM
- TGI (NCI-H460 lung): 21.9 µM
- TGI (KM12 colon): 16.8 µM
- TGI (SK-MEL-2 melanoma): 45 µM
- TGI (MOLT-4 leukemia): 36.3 µM
- TGI (MCF7 breast): 24.1 µM
- TGI (RPMI-8226 leukemia): 20.3 µM
- TGI (SF-539 CNS): 30.9 µM

— PubChem BioAssay (NCI)
